Tested on: Crude diglycosidase
Assay: Examination of pH in the conversion into isoflavone aglycons by diglycosidase using soybean materials
Assay type: biochemical, Penicillium multicolor IAM7153
Design: Decomposition efficiency of genistin family in soymilk / Decomposition efficiency of genistin family in defatted soybean / Decomposition efficiency of daidzin family in defatted soybean: concentration or dose not given beside the values
Conditions: for Decomposition efficiency of genistin family in roasted soy flour: 55° C.
Experimental: A substrate solution of 450 μL was prepared by suspending 50 mg of each soybean material (roasted soy flour (manufactured by Fuji Shokuryo K.K.), soymilk (manufactured by Gitoh Shokuhin K.K.), defatted soybean (manufactured by Fuji Seiyu K.K.), concentrated soybean protein (manufactured by Fuji Seiyu K.K.)), and adjusting the pH to 2 to 11 with hydrochloric acid or sodium hydroxide. Each enzyme solution of pH 2–11 wherein diglycosidase activity of crude diglycosidase was adjusted to 1.88 AU/mL was added thereto in an amount of 50 μL and the whole was reacted at 55° C. at the total volume of 500 μL. To the reaction mixture was added 700 μL of ethanol after 0, 1, 3, and 6 hours of the reaction. After stirring and ultrasonication, the mixture was subjected to centrifugal separation at 15,000 rpm and 4° C. for 10 minutes. The supernatant was filtered through a filter and the existence of isoflavone glycosides and aglycon isoflavones contained in the reaction mixture was detected by HLPC (Tables 15 to 26).

[1] = pH4.8, heat treatment of enzyme: no, reaction time 0 h
[2] = pH4.8, heat treatment of enzyme: no, reaction time 1 h
[3] = pH4.8, heat treatment of enzyme: no, reaction time 3 h
[4] = pH4.8, heat treatment of enzyme: no, reaction time 6 h
[5] = pH4.8, heat treatment of enzyme: yes, reaction time 6 h

CC(=O)OC[C@H]1O[C@@H](Oc2cc(O)c3c(=O)c(-c4ccc(O)cc4)coc3c2)[C@H](O)[C@@H](O)[C@@H]1O [acetylgenistin, 6″-O-acetylgenistin]
Decomposition efficiency of genistin family in concentrated soybean protein (pH1.6, heat treatment of enzyme: no, reaction time 0 h): 42.5% | Decomposition efficiency of genistin family in concentrated soybean protein (pH1.6, heat treatment of enzyme: no, reaction time 1 h): 42.2% | Decomposition efficiency of genistin family in concentrated soybean protein (pH1.6, heat treatment of enzyme: no, reaction time 3 h): 40.6% | Decomposition efficiency of genistin family in concentrated soybean protein (pH1.6, heat treatment of enzyme: no, reaction time 6 h): 38.9% | Decomposition efficiency of genistin family in concentrated soybean protein (pH1.6, heat treatment of enzyme: yes, reaction time 6 h): 37.7% | Decomposition efficiency of genistin family in roasted soy flour (pH2, heat treatment of enzyme no, reaction time 0 h): 45.2 | Decomposition efficiency of genistin family in roasted soy flour (pH2, heat treatment of enzyme no, reaction time 1 h): 45.0 | Decomposition efficiency of genistin family in roasted soy flour (pH2, heat treatment of enzyme no, reaction time 3 h): 43.1 | Decomposition efficiency of genistin family in roasted soy flour (pH2, heat treatment of enzyme no, reaction time 6 h): 40.7 | Decomposition efficiency of genistin family in roasted soy flour (pH2, heat treatment of enzyme yes, reaction time 6 h): 41.2 | Decomposition efficiency of genistin family in soymilk (pH2.3, heat treatment of enzyme: no, reaction time 0 h): 0.6% | Decomposition efficiency of genistin family in soymilk (pH2.3, heat treatment of enzyme: no, reaction time 1 h): 0.7% | Decomposition efficiency of genistin family in soymilk (pH2.3, heat treatment of enzyme: no, reaction time 3 h): 0.8% | Decomposition efficiency of genistin family in soymilk (pH2.3, heat treatment of enzyme: no, reaction time 6 h): 0.6% | Decomposition efficiency of genistin family in soymilk (pH2.3, heat treatment of enzyme: yes, reaction time 6 h): 0.6% | Decomposition efficiency of genistin family in defatted soybean (pH2.6, heat treatment of enzyme: no, reaction time 0 h): 1.8% | Decomposition efficiency of genistin family in defatted soybean (pH2.6, heat treatment of enzyme: no, reaction time 1 h): 1.7% | Decomposition efficiency of genistin family in defatted soybean (pH2.6, heat treatment of enzyme: no, reaction time 3 h): 1.7% | Decomposition efficiency of genistin family in defatted soybean (pH2.6, heat treatment of enzyme: no, reaction time 6 h): 1.9% | Decomposition efficiency of genistin family in defatted soybean (pH2.6, heat treatment of enzyme: yes, reaction time 6 h): 1.6% | Decomposition efficiency of genistin family in concentrated soybean protein (pH2.7, heat treatment of enzyme: no, reaction time 0 h): 42.5% | Decomposition efficiency of genistin family in concentrated soybean protein (pH2.7, heat treatment of enzyme: no, reaction time 1 h): 44.3% | Decomposition efficiency of genistin family in concentrated soybean protein (pH2.7, heat treatment of enzyme: no, reaction time 3 h): 43.7% | Decomposition efficiency of genistin family in concentrated soybean protein (pH2.7, heat treatment of enzyme: no, reaction time 6 h): 44.0% | Decomposition efficiency of genistin family in concentrated soybean protein (pH2.7, heat treatment of enzyme: yes, reaction time 6 h): 42.5% | Decomposition efficiency of genistin family in roasted soy flour (pH3, heat treatment of enzyme no, reaction time 0 h): 45.2 | Decomposition efficiency of genistin family in roasted soy flour (pH3, heat treatment of enzyme no, reaction time 1 h): 45.2 | Decomposition efficiency of genistin family in roasted soy flour (pH3, heat treatment of enzyme no, reaction time 3 h): 41.9 | Decomposition efficiency of genistin family in roasted soy flour (pH3, heat treatment of enzyme no, reaction time 6 h): 43.5 | Decomposition efficiency of genistin family in roasted soy flour (pH3, heat treatment of enzyme yes, reaction time 6 h): 45.1 | Decomposition efficiency of genistin family in defatted soybean (pH3.4, heat treatment of enzyme: no, reaction time 0 h): 1.8% | Decomposition efficiency of genistin family in defatted soybean (pH3.4, heat treatment of enzyme: no, reaction time 1 h): 1.5% | Decomposition efficiency of genistin family in defatted soybean (pH3.4, heat treatment of enzyme: no, reaction time 3 h): 1.1% | Decomposition efficiency of genistin family in defatted soybean (pH3.4, heat treatment of enzyme: no, reaction time 6 h): 0.8% | Decomposition efficiency of genistin family in defatted soybean (pH3.4, heat treatment of enzyme: yes, reaction time 6 h): 1.8% | Decomposition efficiency of genistin family in soymilk (pH3.5, heat treatment of enzyme: no, reaction time 0 h): 0.6% | Decomposition efficiency of genistin family in soymilk (pH3.5, heat treatment of enzyme: no, reaction time 1 h): not detected | Decomposition efficiency of genistin family in soymilk (pH3.5, heat treatment of enzyme: no, reaction time 3 h): not detected | Decomposition efficiency of genistin family in soymilk (pH3.5, heat treatment of enzyme: no, reaction time 6 h): not detected | Decomposition efficiency of genistin family in soymilk (pH3.5, heat treatment of enzyme: yes, reaction time 6 h): 0.5% | Decomposition efficiency of genistin family in concentrated soybean protein (pH3.7, heat treatment of enzyme: no, reaction time 0 h): 43.1% | Decomposition efficiency of genistin family in concentrated soybean protein (pH3.7, heat treatment of enzyme: no, reaction time 1 h): 43.5% | Decomposition efficiency of genistin family in concentrated soybean protein (pH3.7, heat treatment of enzyme: no, reaction time 3 h): 36.9% | Decomposition efficiency of genistin family in concentrated soybean protein (pH3.7, heat treatment of enzyme: no, reaction time 6 h): 30.7% | Decomposition efficiency of genistin family in concentrated soybean protein (pH3.7, heat treatment of enzyme: yes, reaction time 6 h): 43.0% | Decomposition efficiency of genistin family in roasted soy flour (pH4, heat treatment of enzyme no, reaction time 0 h): 45.4 | Decomposition efficiency of genistin family in roasted soy flour (pH4, heat treatment of enzyme no, reaction time 1 h): 36.3 | Decomposition efficiency of genistin family in roasted soy flour (pH4, heat treatment of enzyme no, reaction time 3 h): 23.4 | Decomposition efficiency of genistin family in roasted soy flour (pH4, heat treatment of enzyme no, reaction time 6 h): 13.4 | Decomposition efficiency of genistin family in roasted soy flour (pH4, heat treatment of enzyme yes, reaction time 6 h): 45.4 | Decomposition efficiency of genistin family in defatted soybean [1]: 1.8% | Decomposition efficiency of genistin family in soymilk [1]: 0.5% | Decomposition efficiency of genistin family in defatted soybean [2]: 1.0% | Decomposition efficiency of genistin family in soymilk [2]: not detected | Decomposition efficiency of genistin family in defatted soybean [3]: 0.6% | Decomposition efficiency of genistin family in soymilk [3]: not detected | Decomposition efficiency of genistin family in defatted soybean [4]: 0.4% | Decomposition efficiency of genistin family in soymilk [4]: not detected | Decomposition efficiency of genistin family in defatted soybean [5]: 1.3% | Decomposition efficiency of genistin family in soymilk [5]: 0.6%
